The values that follow come from paper PMC6209530 (Journal of the American Chemical Society, 2018).

Test [1] deals with mouse (NIH/3T3) fibroblast cells. Kind of test: cell growth inhibition. Format: cell-based. The following applies: read-out: IC50, cell growth inhibition.
For the next test, the system named is B16 mouse melanoma. Kind of test: cell growth inhibition. In kind it is cell-based. The following applies: read-out: IC50, cell growth inhibition.
Test [2] concerns mouse macrophages. Nature of the test: cell growth inhibition. Format: cell-based. The settings on record: read-out: IC50, cell growth inhibition.
For test [3], the system named is HCT116 human colon cancer. Kind of test: cell growth inhibition. Format: cell-based. The settings on record: read-out: IC50, cell growth inhibition.
For another test, the system named is human THP-1 cells. Kind of test: cell growth inhibition. Format: cell-based. The following applies: read-out: IC50, cell growth inhibition.
The subject of a further test is mice. The following applies: cited from earlier work; for adjuvant activity in mice: intramuscular (i.m.) injection with antigen (OVA).
Test [4] relates to murine melanoma (B16-OVA). The following applies: combination with anti-PD-L1, diprovocim/OVA i.m., cited from earlier work.
The subject of test [5] is IKKα, IKKβ, p38, JNK, and ERK. The settings on record: cited from earlier work.
Test [6] deals with human foreskin (HFF) fibroblast cells. Nature of the test: cell growth inhibition. In kind it is cell-based. The following applies: read-out: IC50, cell growth inhibition.
For another test, the target named is TLR1 and TLR2 (Mus musculus, UniProt Q9EPQ1+Q9QUN7). In kind it is cell-based. The settings on record: 500 nM, macrophages from mutant or knockout mice.
Sequence of TLR1 and TLR2 (Q9EPQ1 26-795): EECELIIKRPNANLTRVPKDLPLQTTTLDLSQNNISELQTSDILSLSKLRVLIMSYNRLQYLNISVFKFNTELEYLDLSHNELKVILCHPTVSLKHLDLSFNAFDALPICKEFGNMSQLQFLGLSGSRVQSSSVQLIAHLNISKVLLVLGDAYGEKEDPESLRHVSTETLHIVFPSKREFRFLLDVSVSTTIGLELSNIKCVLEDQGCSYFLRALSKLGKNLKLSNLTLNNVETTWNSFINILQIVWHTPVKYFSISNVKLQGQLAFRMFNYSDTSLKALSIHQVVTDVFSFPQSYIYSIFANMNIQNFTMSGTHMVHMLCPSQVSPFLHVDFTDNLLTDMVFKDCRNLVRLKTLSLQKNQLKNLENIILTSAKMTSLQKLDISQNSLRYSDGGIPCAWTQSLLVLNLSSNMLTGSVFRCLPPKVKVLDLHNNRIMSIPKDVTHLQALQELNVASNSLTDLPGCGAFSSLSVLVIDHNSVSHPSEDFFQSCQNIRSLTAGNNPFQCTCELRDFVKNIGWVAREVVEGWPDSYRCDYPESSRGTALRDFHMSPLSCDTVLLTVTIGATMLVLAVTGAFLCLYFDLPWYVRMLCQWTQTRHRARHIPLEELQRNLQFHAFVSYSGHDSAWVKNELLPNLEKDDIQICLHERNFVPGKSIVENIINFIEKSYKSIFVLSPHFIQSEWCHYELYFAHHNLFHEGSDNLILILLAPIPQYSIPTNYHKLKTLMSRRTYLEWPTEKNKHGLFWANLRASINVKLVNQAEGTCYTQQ
Sequence of TLR1 and TLR2 (Q9QUN7 25-784): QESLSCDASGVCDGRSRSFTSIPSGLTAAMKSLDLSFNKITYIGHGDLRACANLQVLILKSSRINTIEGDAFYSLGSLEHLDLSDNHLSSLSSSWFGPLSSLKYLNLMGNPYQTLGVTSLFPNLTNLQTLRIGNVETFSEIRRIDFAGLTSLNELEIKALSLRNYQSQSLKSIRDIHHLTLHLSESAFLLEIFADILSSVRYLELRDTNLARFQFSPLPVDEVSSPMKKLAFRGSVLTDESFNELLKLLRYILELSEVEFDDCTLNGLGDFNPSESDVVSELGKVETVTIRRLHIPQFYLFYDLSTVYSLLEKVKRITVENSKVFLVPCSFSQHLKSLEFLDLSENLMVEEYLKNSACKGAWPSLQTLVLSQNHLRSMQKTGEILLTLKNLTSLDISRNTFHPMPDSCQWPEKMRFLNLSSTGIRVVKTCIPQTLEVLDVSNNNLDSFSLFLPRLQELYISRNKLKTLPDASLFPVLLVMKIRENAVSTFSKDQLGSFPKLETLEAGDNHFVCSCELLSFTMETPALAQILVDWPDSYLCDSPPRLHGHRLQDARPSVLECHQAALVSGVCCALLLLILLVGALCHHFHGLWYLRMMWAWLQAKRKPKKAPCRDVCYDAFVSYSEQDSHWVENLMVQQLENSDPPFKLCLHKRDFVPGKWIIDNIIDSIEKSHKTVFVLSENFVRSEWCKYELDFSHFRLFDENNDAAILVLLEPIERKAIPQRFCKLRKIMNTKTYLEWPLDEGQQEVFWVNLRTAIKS
For the next test, the system named is L1210 mouse leukemia. Nature of the test: cell growth inhibition. In kind it is cell-based. The settings on record: read-out: IC50, cell growth inhibition.
Test [7] deals with mouse macrophages. Nature of the test: stimulated release of TNF-α from mouse macrophages. In kind it is cell-based. The settings on record: read-out: EC50, stimulated release of TNF-α.
In test [8] the test system is differentiated human THP-1 cells. Format: cell-based.
Setting [9] is: read-out: EC50, stimulated release of TNF-α, differentiated human THP-1 cells.

Read-outs that look alike come from different tables or passages of the source. Peptide text beside a SMILES is read from it. * marks the point of attachment. X1 = CCCCCCCCCCCCCCCC(=O)OCC(C*)OC(=O)CCCCCCCCCCCCCCC; Palmitoyl = CCCCCCCCCCCCCCCC(=O)*

Regarding `O=C(N[C@H]1C[C@@H]1c1ccccc1)[C@@H]1CN(C(=O)c2ccc(C(=O)N3C[C@@H](C(=O)N[C@H]4C[C@@H]4c4ccccc4)[C@H](C(=O)N[C@H]4C[C@@H]4c4ccccc4)C3)cc2)C[C@H]1C(=O)N[C@H]1C[C@@H]1c1ccccc1` [Compound 3], the IC50 (in [1]; with B16 mouse melanoma; in the test with mouse macrophages [2]; in test [3]; in the test on human THP-1 cells; in [6]) was above 10000 nM in each case. For the same compound, the half-inhibitory concentration (IC50) – broadly, the concentration that inhibits the measured activity by half – in the test on L1210 mouse leukemia was above 10000 nM. Moreover, the “adjuvant activity in TLR1 and TLR2 deficient mice” value in the test with mice (i.m. with OVA, TLR1 and TLR2 deficient mice) is “inactive”. For the same compound, the entries for the “adjuvant activity in mice” value with mice and with mice (listed as Diprovocim-1) were “active as an adjuvant” and “acts as an adjuvant”, respectively. Moreover, the “protection from tumor rechallenge” value in test [4] is listed as “protected mice from tumor rechallenge”. Moreover, the entries for the “survival of mice implanted with B16-OVA melanoma” value in [4] and in [4] (listed as diprovocim-1) were “cured or prolonged survival of mice” and “cured or prolonged the survival of mice”, respectively. Besides, in test [5], the “phosphorylation and activation of IKKα, IKKβ, p38, JNK, and ERK” value is “induce the phosphorylation and activation”. Besides, on TLR1 and TLR2, the “dependence of activity on downstream signaling proteins” value is “dependent on TLR1/TLR2 signaling through MyD88, TIRAP, and IRAK4”. The results for the EC50 (with mouse macrophages [7]; in test [8] (setting [9])) were 1.3 nM and 0.11 nM, respectively. Further, the “times more potent than Pam3CSK4” value in [8] (direct side-by-side comparison, human THP-1 cells) was 5–10 times. Besides, the “potency differential human THP-1 cells versus mouse macrophages” value in test [8] (human versus mouse cell release of TNF-α) was found to be 10 fold.

On to `CCCCCCCCCCCCCCCC(=O)N[C@@H](CSCC(COC(=O)CCCCCCCCCCCCCCC)OC(=O)CCCCCCCCCCCCCCC)C(=O)N[C@@H](CO)C(=O)N[C@@H](CCCCN)C(=O)N[C@@H](CCCCN)C(=O)N[C@@H](CCCCN)C(=O)N[C@@H](CCCCN)C(=O)O` (some centres unmarked) [Pam3CSK4, reference compound] (Palmitoyl-C(X1)SKKKK-OH; N-terminus and C-terminus assumed), for which the concentration giving a half-maximal response (EC50) (in general, the concentration needed to bring the measured effect to its halfway point) in test [8] came out at 0.91 nM.

Take `O=C(NCCc1ccc(F)cc1)[C@@H]1CN(C(=O)c2ccc(C(=O)N3C[C@@H](C(=O)NCCc4ccc(F)cc4)[C@H](C(=O)NCCc4ccc(F)cc4)C3)cc2)C[C@H]1C(=O)NCCc1ccc(F)cc1` [Compound 4]: the “fold more potent than the all racemate (69)” value in [8] (human THP-1 cells) is listed as 3 fold. Further, the EC50 in test [8] (setting [9]) turned out to be 50 nM.

Take `O=C(NCCc1ccc(F)cc1)C1CN(C(=O)c2ccc(C(=O)N3CC(C(=O)NCCc4ccc(F)cc4)C(C(=O)NCCc4ccc(F)cc4)C3)cc2)CC1C(=O)NCCc1ccc(F)cc1` (centres unmarked) [Compound 69]: the EC50 in test [8] (setting [9]) amounted to 100 nM.
